# Measurements published in paper PMC4868691, “β-catenin nuclear translocation in colorectal cancer cells is suppressed by PDE10A inhibition, cGMP elevation, and activation of PKG” (Oncotarget, 2015).
# Where two headings read alike, the source gives them in different places.
# Legend:
# HT-29 cells [1] = experiment: Growth inhibition with or without H89 pretreatment (CellTiter-Glo); format: cell-based, human; details: for IC50: Homo sapiens
# Experimental: (§1) C. […] They are assigned to Pf-2545920 because the x-axis label names it as the compound given in dose-response.
# (§2) Growth Assays were performed by seeding 5,000 cells per well in a 96-well microtiter plate, or 2,500 cells per well in half-area 96-well microtiter plates. Cells were allowed to settle onto the bottom of the plate before being dosed with compounds in dose-response for 72 hours at 37°C in a humidified incubator containing 5% CO2. After incubation, growth inhibitory activity was assayed using the Cell Titer Glo Assay (Promega) according to manufacturer's recommendations.
# HT-29 cells [2] = experiment: Kinase inhibitor pretreatment, VASP phosphorylation after Pf-2545920 stimulation; format: cell-based, human
# Experimental: as §1
# (§3) Cell lysates were separated by SDS-PAGE using 12% polyacrylamide gel, 7.5% for PDE10 protein analysis, followed by electrophoretic transfer to nitrocellulose membranes. The membranes were then blocked at room temperature on an orbital shaker for 1 hour in a solution of 5% non-fat dry milk in TBS with 0.1% Tween 20 (TBS-T). Membranes were then incubated overnight at 4 degrees on an orbital shaker with appropriate primary antibodies. Membranes were then washed three times with TBS-T before addition of appropriate secondary antibodies, and incubated at room temperature for 1 hour on an orbital shaker. Membranes were washed and developed using SuperSignal West Enhanced Chemiluminescence Reagent (Pierce).
# colon tumor cell = experiment: Colon tumor cell growth, rolipram; format: cell-based; details: concentrations up to 100 μM, data not shown
# HT-29 cells [3] = experiment: PARP cleavage by Western blot; format: cell-based, human; details: HT-29, 0.1 μM KT 5823 for 30 minutes before Pf-2545920 at 5 μM and 10 μM for 6 hours
# Experimental: as §3
# PDE4B2 = PDE4B2 (Homo sapiens, UniProt Q07343); experiment: Phosphodiesterase isozyme specificity, PDE4B2; format: biochemical; details: PDE4B2, cAMP substrate
# [4] = test system: HCT-116 colon tumor cells; experiment: VASP/CREB phosphorylation by Western blot (PKG and PKA activation); format: cell-based, human
# Experimental: as §3
# SW-480 colon tumor cells = experiment: β-catenin nuclear translocation under Wnt3a stimulation (confocal immunofluorescence); format: cell-based, human; details: pre-incubation 30 minutes, Wnt3a conditioned media 5 hours
# Experimental: Cover glass bottom 35mm tissue culture dishes were precoated with EmbryoMax 0.1% gelatin from Millipore according to manufacturer's recommendations. Cells were then plated and allowed to grow to 70-90% confluency before treatments. SW-480 cells were serum starved overnight prior to the addition of PDE10 inhibitors at the concentrations indicated. […] Briefly, Wnt3a or parental L-cells lacking Wnt3a were purchased from the ATCC and grown according to the manufacurer's recommendations. Once cells reached confluency, the media was collected and filtered before use. Conditioned media was added to SW-480 cells in order to stimulate nuclear translocation of β-catenin for 5 hours before fixation and staining. Cover glass bottom 35mm tissue culture dishes were precoated with EmbryoMax 0.1% gelatin from Millipore according to manufacturer's recommendations. Cells were then plated and allowed to grow to 70-90% confluency before treatments. Cells were fixed with 10% buffered formalin, before permeabilization with PBS containing 0.1% Trition X-100. Cells were incubated with the appropriate primary antibodies before incubation with secondary antibodies conjugated with Alexa-fluor 488 and mounted using ProLong Gold antifade reagent with DAPI (Molecular Probes-ThermoFisher Scientific). Images were acquired using a Nikon A1 Laser Scanning Confocal microscope. […]
# PDE3A = PDE3A (Homo sapiens, UniProt Q14432); experiment: Phosphodiesterase isozyme specificity, PDE3A; format: biochemical
# Sequence of PDE3A (Q14432 whole entry, species assumed): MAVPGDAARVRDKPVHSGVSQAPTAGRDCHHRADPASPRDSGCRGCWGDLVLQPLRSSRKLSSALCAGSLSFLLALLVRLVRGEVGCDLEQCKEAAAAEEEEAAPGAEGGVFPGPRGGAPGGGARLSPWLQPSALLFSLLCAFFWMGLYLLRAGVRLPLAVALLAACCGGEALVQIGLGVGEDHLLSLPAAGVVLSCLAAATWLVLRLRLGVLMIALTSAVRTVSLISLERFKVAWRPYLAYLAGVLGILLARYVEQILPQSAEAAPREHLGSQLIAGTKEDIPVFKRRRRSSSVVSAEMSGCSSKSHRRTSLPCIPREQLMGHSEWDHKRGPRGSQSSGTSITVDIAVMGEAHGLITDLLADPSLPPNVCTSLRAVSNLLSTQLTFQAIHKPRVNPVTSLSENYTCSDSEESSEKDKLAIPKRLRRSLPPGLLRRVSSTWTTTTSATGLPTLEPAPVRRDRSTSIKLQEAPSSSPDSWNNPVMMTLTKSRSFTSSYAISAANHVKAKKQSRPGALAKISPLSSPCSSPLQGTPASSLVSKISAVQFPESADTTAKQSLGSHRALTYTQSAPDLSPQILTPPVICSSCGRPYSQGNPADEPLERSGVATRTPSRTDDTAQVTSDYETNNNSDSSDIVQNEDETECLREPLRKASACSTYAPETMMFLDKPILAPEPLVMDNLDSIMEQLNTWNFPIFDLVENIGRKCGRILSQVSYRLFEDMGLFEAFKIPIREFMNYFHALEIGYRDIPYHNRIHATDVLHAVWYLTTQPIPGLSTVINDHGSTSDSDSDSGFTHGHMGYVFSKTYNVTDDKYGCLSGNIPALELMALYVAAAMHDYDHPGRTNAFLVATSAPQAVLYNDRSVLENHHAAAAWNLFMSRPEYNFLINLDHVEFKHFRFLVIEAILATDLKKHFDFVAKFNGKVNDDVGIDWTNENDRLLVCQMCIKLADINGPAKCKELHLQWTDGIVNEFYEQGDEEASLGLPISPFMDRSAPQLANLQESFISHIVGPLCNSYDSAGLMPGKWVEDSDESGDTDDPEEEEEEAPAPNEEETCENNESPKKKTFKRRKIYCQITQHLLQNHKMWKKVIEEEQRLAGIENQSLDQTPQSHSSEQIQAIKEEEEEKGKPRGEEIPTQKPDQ
# HCT-116 [5] = experiment: Intracellular cAMP levels; format: cell-based, human; details: HCT-116, concentration-dependent
# KM12 = experiment: Growth inhibition assay (Cell Titer Glo), KM12; format: cell-based; details: Homo sapiens; KM12, 72 hours
# Experimental: as §2
# HT-29 colon tumor cells = experiment: Fluorescent cytotoxicity assay (CellTox Green); format: cell-based, human; details: dose response over time
# Experimental: Cells were plated in 96-well microtiter plates at a […] of 5,000 cells per well and treated with compound or vehicle control at the doses and times indicated. Cytotoxicity was measured using CellTox Green Cytotoxicity Assay (Promega) according to the manufacturer's recommendations.
# PDE5 = PDE5 (Homo sapiens, UniProt O76074); experiment: Phosphodiesterase isozyme specificity, PDE5; format: biochemical; details: PDE5, cGMP substrate
# PDE3B = PDE3B (Homo sapiens, UniProt Q13370); experiment: Phosphodiesterase isozyme specificity, PDE3B; format: biochemical; details: @ 10 μM
# Sequence of PDE3B (Q13370 whole entry, species assumed): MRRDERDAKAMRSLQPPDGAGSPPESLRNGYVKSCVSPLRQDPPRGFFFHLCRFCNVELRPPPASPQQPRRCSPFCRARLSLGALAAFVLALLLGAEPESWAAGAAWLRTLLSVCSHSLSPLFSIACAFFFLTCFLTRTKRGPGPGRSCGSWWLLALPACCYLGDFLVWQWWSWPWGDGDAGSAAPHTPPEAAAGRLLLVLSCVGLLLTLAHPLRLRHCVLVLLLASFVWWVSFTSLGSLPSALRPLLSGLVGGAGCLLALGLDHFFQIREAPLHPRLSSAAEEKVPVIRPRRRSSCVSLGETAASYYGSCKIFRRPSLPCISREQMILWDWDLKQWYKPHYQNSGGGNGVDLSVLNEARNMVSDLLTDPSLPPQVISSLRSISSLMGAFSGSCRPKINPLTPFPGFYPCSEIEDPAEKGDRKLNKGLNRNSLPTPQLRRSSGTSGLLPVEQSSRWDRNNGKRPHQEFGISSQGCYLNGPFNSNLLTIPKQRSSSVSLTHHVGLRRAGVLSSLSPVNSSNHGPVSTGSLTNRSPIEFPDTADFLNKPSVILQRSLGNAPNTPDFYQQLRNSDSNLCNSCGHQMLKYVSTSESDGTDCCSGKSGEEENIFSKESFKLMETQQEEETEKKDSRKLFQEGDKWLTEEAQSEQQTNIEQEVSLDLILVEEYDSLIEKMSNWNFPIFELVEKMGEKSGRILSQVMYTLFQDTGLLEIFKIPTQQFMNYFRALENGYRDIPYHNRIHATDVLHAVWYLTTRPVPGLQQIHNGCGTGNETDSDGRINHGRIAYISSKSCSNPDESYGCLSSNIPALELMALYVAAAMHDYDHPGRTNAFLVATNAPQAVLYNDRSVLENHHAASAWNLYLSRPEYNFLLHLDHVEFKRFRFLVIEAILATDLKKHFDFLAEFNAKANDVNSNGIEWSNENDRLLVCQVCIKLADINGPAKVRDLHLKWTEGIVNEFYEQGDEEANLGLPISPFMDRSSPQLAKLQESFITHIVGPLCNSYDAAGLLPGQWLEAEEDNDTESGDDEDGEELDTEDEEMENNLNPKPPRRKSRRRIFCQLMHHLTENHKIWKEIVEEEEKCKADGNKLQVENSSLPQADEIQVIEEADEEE
# SW620 = experiment: Growth inhibition assay (Cell Titer Glo), SW620; format: cell-based; details: Homo sapiens, SW-620; SW620, 72 hours
# Experimental: as §2
# HT-29 cells [6] = experiment: Apoptosis, Annexin V-FITC + PI staining by FACS; format: cell-based, human; details: 72 hours; for cells staining positive for Annexin V: lower right quadrant; for cells staining positive for both Annexin V and PI: upper right quadrant
# Experimental: Apoptosis was assayed using the Annexin V-FITC + PI apoptosis detection kit from Leinco Technologies according to the manufacturer's recommendations. HT-29 cells were incubated with compounds for 72 hrs at 37°C before being analyzed for apoptosis by FACS.
# HCT-116 [7] = experiment: cGMP EIA assay, intracellular cGMP; format: cell-based, human; details: HCT-116, concentration-dependent
# Experimental: Total levels of cGMP were measured using a competitive ELISA assay (Cayman Chemical) according to the manufacturer's recommendations. A standard curve is generated using samples of known cGMP concentrations provided with the assay and plotted using linear regression to extrapolate samples.
# [8] = test system: panel of nine human colon tumor cell lines; experiment: Growth inhibition, panel of nine human colon tumor cell lines; format: cell-based; details: 72 hours, read-out: growth inhibition IC50 values, range over all lines
# Experimental: as §2
# PDE2A = PDE2A (Homo sapiens, UniProt O00408); experiment: Phosphodiesterase isozyme specificity, PDE2A; format: biochemical
# Sequence of PDE2A (O00408 whole entry, species assumed): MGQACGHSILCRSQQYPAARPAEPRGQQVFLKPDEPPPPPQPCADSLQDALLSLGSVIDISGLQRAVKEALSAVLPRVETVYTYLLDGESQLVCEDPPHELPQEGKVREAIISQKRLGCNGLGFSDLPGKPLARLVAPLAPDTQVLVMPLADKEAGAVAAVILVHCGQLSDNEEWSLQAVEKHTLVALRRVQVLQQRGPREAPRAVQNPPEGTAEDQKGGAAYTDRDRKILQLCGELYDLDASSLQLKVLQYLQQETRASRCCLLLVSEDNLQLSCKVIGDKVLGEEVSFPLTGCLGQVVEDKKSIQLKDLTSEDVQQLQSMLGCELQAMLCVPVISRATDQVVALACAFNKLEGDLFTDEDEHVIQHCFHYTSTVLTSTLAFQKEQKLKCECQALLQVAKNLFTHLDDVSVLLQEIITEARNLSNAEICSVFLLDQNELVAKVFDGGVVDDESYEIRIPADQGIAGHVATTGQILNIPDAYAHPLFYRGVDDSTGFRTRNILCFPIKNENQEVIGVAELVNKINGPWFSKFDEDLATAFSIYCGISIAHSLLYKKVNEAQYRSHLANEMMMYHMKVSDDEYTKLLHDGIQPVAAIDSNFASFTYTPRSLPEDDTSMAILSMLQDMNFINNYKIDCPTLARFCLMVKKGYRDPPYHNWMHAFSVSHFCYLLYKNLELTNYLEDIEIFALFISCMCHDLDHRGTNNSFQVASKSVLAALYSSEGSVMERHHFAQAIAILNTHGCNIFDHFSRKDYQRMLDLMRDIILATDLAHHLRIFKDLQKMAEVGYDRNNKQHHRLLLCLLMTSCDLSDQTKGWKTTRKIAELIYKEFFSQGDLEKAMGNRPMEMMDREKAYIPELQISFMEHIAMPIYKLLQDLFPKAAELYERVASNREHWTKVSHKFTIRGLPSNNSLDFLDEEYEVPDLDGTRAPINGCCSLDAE
# HCC-2998 = experiment: Growth inhibition assay (Cell Titer Glo), HCC-2998; format: cell-based; details: Homo sapiens; HCC-2998, 72 hours
# Experimental: as §2
# [9] = test system: HT-29 PDE10 knockdown cells; experiment: Growth inhibition, HT-29 PDE10 knockdown cells; format: cell-based; details: Homo sapiens; HT-29 PDE10 knockdown (shRNA) cells
# Experimental: as §2
# (§4) HT-29 PDE10 knockdown cells were generated and described previously. Briefly, lentiviral particles targeting PDE10 were produced in HEK293T cells according to the manufacturer's instruction. HT-29 cells were transduced by the lentivirus particles followed by puromycin selection (5μg/ml) for 2 weeks. Individual cell colonies stably expressing shRNA were selected and isolated in the presence of puromycin, and evaluated by western blotting previously.
# PDE9A = PDE9A (Homo sapiens, UniProt O76083); experiment: Phosphodiesterase isozyme specificity, PDE9A; format: biochemical; details: cGMP substrate, @ 10 μM
# HCT116 = experiment: Growth inhibition assay (Cell Titer Glo), HCT116; format: cell-based; details: Homo sapiens, HCT-116; HCT116, 72 hours
# Experimental: as §2
# HCT-15 = experiment: Growth inhibition assay (Cell Titer Glo), HCT-15; format: cell-based; details: Homo sapiens; HCT-15, 72 hours
# Experimental: as §2
# COLO-205 = experiment: Growth inhibition assay (Cell Titer Glo), COLO-205; format: cell-based; details: Homo sapiens; COLO-205, 72 hours
# Experimental: as §2
# [10] = test system: HT-29 vector control cells; experiment: Growth inhibition, HT-29 vector control cells; format: cell-based; details: Homo sapiens
# Experimental: as §2, §4
# PDE11A = PDE11A (Homo sapiens, UniProt Q9HCR9); experiment: Phosphodiesterase isozyme specificity, PDE11A; format: biochemical; details: @ 10 μM
# Sequence of PDE11A (Q9HCR9 whole entry, species assumed): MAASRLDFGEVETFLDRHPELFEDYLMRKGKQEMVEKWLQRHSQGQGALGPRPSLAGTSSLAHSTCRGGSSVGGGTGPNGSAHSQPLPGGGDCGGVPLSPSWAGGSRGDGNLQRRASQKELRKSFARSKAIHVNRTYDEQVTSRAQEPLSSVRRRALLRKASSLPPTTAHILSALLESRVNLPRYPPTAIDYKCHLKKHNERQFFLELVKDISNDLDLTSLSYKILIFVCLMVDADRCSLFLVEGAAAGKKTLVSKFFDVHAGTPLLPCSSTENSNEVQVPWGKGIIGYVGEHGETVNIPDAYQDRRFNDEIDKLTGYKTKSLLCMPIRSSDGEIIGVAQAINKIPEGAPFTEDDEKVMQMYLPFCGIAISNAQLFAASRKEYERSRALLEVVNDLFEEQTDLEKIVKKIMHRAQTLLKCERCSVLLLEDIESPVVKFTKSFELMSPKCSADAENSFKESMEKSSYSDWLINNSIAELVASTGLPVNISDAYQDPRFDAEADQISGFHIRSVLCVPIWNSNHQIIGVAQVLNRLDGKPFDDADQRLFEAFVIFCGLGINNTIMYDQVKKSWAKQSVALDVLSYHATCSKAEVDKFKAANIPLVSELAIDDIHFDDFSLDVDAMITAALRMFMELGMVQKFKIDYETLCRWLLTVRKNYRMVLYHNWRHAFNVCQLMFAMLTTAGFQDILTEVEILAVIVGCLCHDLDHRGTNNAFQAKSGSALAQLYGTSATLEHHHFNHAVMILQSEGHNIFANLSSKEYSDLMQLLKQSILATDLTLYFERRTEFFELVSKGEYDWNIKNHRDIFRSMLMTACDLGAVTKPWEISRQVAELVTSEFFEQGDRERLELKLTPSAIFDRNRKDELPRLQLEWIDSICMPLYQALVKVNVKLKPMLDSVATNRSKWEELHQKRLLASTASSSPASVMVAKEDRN
# PDE1A = PDE1A (Homo sapiens, UniProt P54750); experiment: Phosphodiesterase isozyme specificity, PDE1A; format: biochemical; details: @ 10 μM
# Sequence of PDE1A (P54750 whole entry, species assumed): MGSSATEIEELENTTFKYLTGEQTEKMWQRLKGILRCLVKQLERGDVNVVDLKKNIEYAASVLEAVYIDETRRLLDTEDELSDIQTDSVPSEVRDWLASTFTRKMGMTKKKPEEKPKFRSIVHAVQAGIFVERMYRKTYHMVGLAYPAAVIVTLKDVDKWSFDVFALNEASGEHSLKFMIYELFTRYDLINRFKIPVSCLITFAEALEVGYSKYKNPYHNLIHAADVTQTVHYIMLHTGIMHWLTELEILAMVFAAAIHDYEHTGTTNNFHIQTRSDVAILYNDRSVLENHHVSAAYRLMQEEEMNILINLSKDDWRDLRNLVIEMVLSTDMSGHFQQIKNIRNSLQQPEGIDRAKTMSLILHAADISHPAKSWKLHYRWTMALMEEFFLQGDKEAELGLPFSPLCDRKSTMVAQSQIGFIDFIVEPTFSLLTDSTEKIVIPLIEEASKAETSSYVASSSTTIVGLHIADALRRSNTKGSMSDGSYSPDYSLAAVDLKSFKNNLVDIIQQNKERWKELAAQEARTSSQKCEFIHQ
# [11] = HT-29, 10 minutes pretreatment in ascending concentrations, then 5μM Pf-2545920 for 1 hour
# [12] = HT-29, 30 minutes pretreatment in ascending concentrations, then 5 μM Pf-2545920 for 1 hour
# [13] = cAMP substrate, read-out: cAMP IC50
# [14] = cGMP substrate, read-out: cGMP IC50
smiles,measurement,setting,value
O=S(=O)(NCCNC/C=C/c1ccc(Br)cc1)c1cccc2cnccc12 [H89],effect on sensitivity of cells to growth inhibitory activity of Pf-2545920,"HT-29 cells [1]; HT-29, 0.1μM H89 for 10 minutes before Pf-2545920 for 72 hours",had no effect on the sensitivity
same,PKA activation (VASP phosphorylation at serine 157),HT-29 cells [2]; [11],blocks the activation of PKA in a concentration-dependent manner
same,PKG activation (VASP phosphorylation at serine 239),HT-29 cells [2]; [11],"blocking the activation of PKG, albeit at higher concentrations"
COc1ccc(C2CNC(=O)C2)cc1OC1CCCC1 (stereo not drawn) [rolipram],colon tumor cell growth,colon tumor cell,did not affect colon tumor cell growth
COC(=O)[C@@]1(OC)C[C@H]2O[C@]1(C)n1c3ccccc3c3c4c(c5c6ccccc6n2c5c31)C(=O)N(C)C4 [KT 5823],apoptosis by Western blot for cleaved-PARP,HT-29 cells [3],reduced apoptosis
same,PKA activity (VASP phosphorylation at serine 157),HT-29 cells [2]; [12],minimally affecting the activity of PKA
same,PKG activation (VASP phosphorylation at serine 239),HT-29 cells [2]; [12],caused a decrease in PKG activation
"Cn1cc(-c2ccncc2)c(-c2ccc(OCc3ccc4ccccc4n3)cc2)n1 [Pf-2545920, 2-[4-(1-Methyl-4-pyridin-4-yl-1H-pyrazol-3-yl)-phenoxymethyl]-quinoline]",IC50,PDE4B2,2.36 µM
same,phosphorylated VASP (serine 239 and serine 157),"[4]; HCT-116, 5 μM, time course up to 8 hours, time-dependent",increased the level of phosphorylated VASP
same,PKG and PKA activation (phosphorylation of VASP and CREB),"[4]; HCT-116, dose response, 1 hour",activated both PKG and PKA
same,β-catenin in the nucleus,"SW-480 colon tumor cells; SW-480, 10 μM",reduced the amount of β-catenin in the nucleus
same,total protein levels of β-catenin,"SW-480 colon tumor cells; SW-480, 25 μM",total protein levels of β-catenin are decreased
same,IC50,PDE3A; [13],> 50 µM
same,IC50,PDE3A; [14],> 50 µM
same,intracellular cAMP levels,HCT-116 [5],increased
same,IC50,KM12,6.9 µM
same,cell death (fluorescence intensity),HT-29 colon tumor cells,induces cell death in a concentration-dependent manner
same,IC50,PDE5,8.6 µM
same,cAMP IC50,PDE3B; cAMP substrate,Inactive @ 10 μM
same,cGMP IC50,PDE3B; cGMP substrate,Inactive @ 10 μM
same,IC50,SW620,19.6 µM
same,cells staining positive for Annexin V,"HT-29 cells [6]; HT-29, 10 μM",25.9%
same,cells staining positive for both Annexin V and PI,"HT-29 cells [6]; HT-29, 10 μM",31.9%
same,cells staining positive for Annexin V,"HT-29 cells [6]; HT-29, 25 μM",38.2%
same,cells staining positive for both Annexin V and PI,"HT-29 cells [6]; HT-29, 25 μM",31.4%
same,intracellular cGMP levels,HCT-116 [7],increased
same,IC50,[8],6.9 to 19.6 µM
same,IC50,"HT-29 cells [1]; HT-29, pretreated with 0.1μM H89 for 10 minutes, 72 hours",4.8 µM
same,IC50,"HT-29 cells [1]; HT-29, without H89, 72 hours",4.6 µM
same,IC50,PDE2A; [13],36.6 µM
same,IC50,PDE2A; [14],> 50 µM
same,IC50,HCC-2998,18.9 µM
same,IC50,[9],13.4 µM
same,cGMP IC50,PDE9A,Inactive @ 10 μM
same,IC50,HCT116,19.3 µM
same,IC50,HCT-15,14.4 µM
same,IC50,COLO-205,18.5 µM
same,IC50,[10],1.2 µM
same,cAMP IC50,PDE11A; cAMP substrate,Inactive @ 10 μM
same,cGMP IC50,PDE11A; cGMP substrate,Inactive @ 10 μM
same,cAMP IC50,PDE1A; cAMP substrate,Inactive @ 10 μM
same,cGMP IC50,PDE1A; cGMP substrate,Inactive @ 10 μM
